Format in all cases: in vivo
The subject of assay [1] is Alopecurus myosuroides (ALOMY). Briefly: Example B pre-emergence herbicidal activity. The settings on record: 312 h, rate 250 g/ha, evaluated after 13 days, read-out: Pre-Emergence Activity ALOMY (100=total damage to plant; 0=no damage to plant). Summed up: (§1)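 Seeds sown in standard soil in pots and grown in a glasshouse at 24/16 °C day/night, 14 h light, 65% humidity. Sprayed 1 day after sowing (pre-emergence) or after 8 days (post-emergence) with aqueous spray of active in acetone/water 50:50 with 0.5% Tween 20. Damage scored after 13 days, 0–100 scale.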

Assay [2] concerns Amaranthus retoflexus (AMARE). The assay can be described thus: Example B pre-emergence herbicidal activity. The settings on record: Amaranthus retroflexus, 312 h, rate 250 g/ha, evaluated after 13 days, read-out: Pre-Emergence Activity AMARE (100=total damage to plant; 0=no damage to plant). In short, it runs like this: as §1
Assay [3] relates to Avena fatua (AVEFA). The assay can be described thus: Example B pre-emergence herbicidal activity. Conditions: 312 h, rate 250 g/ha, evaluated after 13 days, read-out: Pre-Emergence Activity AVEFA (100=total damage to plant; 0=no damage to plant). Summed up:
as §1

In assay [4] the test system is Echinochloa crus-galli (ECHCG). Briefly: Example B pre-emergence herbicidal activity. The settings on record: 312 h, rate 250 g/ha, evaluated after 13 days, read-out: Pre-Emergence Activity ECHCG (100=total damage to plant; 0=no damage to plant). In short, it runs like this: as §1
The test system of assay [5] is Setaria faberi (SETFA). The assay can be described thus: Example B pre-emergence herbicidal activity. Conditions: 312 h, rate 250 g/ha, evaluated after 13 days, read-out: Pre-Emergence Activity SETFA (100=total damage to plant; 0=no damage to plant). Summed up: as §1
Assay [6] relates to Alopecurus myosuroides (ALOMY). The assay can be described thus: Example B post-emergence herbicidal activity. Conditions: 312 h, rate 250 g/ha, evaluated after 13 days, read-out: Post-emergence activity ALOMY (100=total damage to plant; 0=no damage to plant). In short, it runs like this:
as §1

Assay [7] relates to Amaranthus retoflexus (AMARE). The assay can be described thus: Example B post-emergence herbicidal activity. The settings on record: Amaranthus retroflexus, 312 h, rate 250 g/ha, evaluated after 13 days, read-out: Post-emergence activity AMARE (100=total damage to plant; 0=no damage to plant). In short, it runs like this: as §1
Assay [8] concerns Avena fatua (AVEFA). Briefly: Example B post-emergence herbicidal activity. Conditions: 312 h, rate 250 g/ha, evaluated after 13 days, read-out: Post-emergence activity AVEFA (100=total damage to plant; 0=no damage to plant). Summed up: as §1
Assay [9] concerns Echinochloa crus-galli (ECHCG). The assay can be described thus: Example B post-emergence herbicidal activity. The settings on record: 312 h, rate 250 g/ha, evaluated after 13 days, read-out: Post-emergence activity ECHCG (100=total damage to plant; 0=no damage to plant). In short, it runs like this:
as §1

Assay [10] has as its system Setaria faberi (SETFA). The assay can be described thus: Example B post-emergence herbicidal activity. Conditions: 312 h, rate 250 g/ha, evaluated after 13 days, read-out: Post-emergence activity SETFA (100=total damage to plant; 0=no damage to plant). Summed up: as §1

Each structure is given as a SMILES string.

On to `Cc1ccc(-c2nc(C3C(=O)[C@@H]4CC[C@@H](C4)C3=O)c(C)s2)cc1Cl` (stereo partly drawn) [Compound T10], for which the pest or weed control at 250 g/ha in [1] was determined as 20%; in assay [2], 0%; in the assay with Avena fatua (AVEFA) [3], 0%; in [4] it was 60%; in the assay with Setaria faberi (SETFA) [5] it was 20%; in assay [6] it was 20%. Also, the pest or weed control at 250 g/ha in [7] was found to be 0%; with Avena fatua (AVEFA) [8] it was 0%; in [9], 70%; with Setaria faberi (SETFA) [10], 70%.

On to `CCc1sc(-c2ccc(Cl)cc2)nc1C1=C(OC(=O)C2CC2)C2CCC(C2)C1=O` (stereo not drawn) [Compound P1], for which the pest or weed control at 250 g/ha in assay [1] was determined as 80%; in assay [2], 0%; with Avena fatua (AVEFA) [3], 0%; in assay [4], 100%; in the assay with Setaria faberi (SETFA) [5], 100%; in assay [6], 100%. Moreover, the pest or weed control at 250 g/ha in assay [7] was found to be 0%; with Avena fatua (AVEFA) [8] it was 100%; in assay [9] it was 100%; in the assay with Setaria faberi (SETFA) [10] it was 100%.

In the case of `Cc1sc(-c2ccccc2)nc1C1C(=O)[C@@H]2CC[C@@H](C2)C1=O` (stereo partly drawn) [Compound T56], the pest or weed control at 250 g/ha was found to be 0% in assay [1]; 0% in assay [2]; 0% with Avena fatua (AVEFA) [3]; 40% in assay [4]; 0% in the assay on Setaria faberi (SETFA) [5]; 0% in assay [6]. The pest or weed control at 250 g/ha in assay [7] worked out at 0%; in the assay on Avena fatua (AVEFA) [8], 0%; in assay [9], 60%; with Setaria faberi (SETFA) [10] it was 70%.

Take `Cc1sc(-c2ccc(Cl)c(Cl)c2)nc1C1C(=O)[C@@H]2CC[C@@H](C2)C1=O` (stereo partly drawn) [Compound T9]: the pest or weed control at 250 g/ha amounted to 30% in assay [1]; 0% in assay [2]; 0% in the assay on Avena fatua (AVEFA) [3]; 50% in [4]; 50% with Setaria faberi (SETFA) [5]; 60% in [6]. Besides, the pest or weed control at 250 g/ha worked out at 0% in assay [7], 0% with Avena fatua (AVEFA) [8], 70% in [9] and 100% in the assay with Setaria faberi (SETFA) [10].

In the case of `O=C1C(c2nc(-c3ccc(Cl)cc3)sc2Br)C(=O)[C@H]2CC[C@@H]1C2` (stereo partly drawn) [Compound T49], the pest or weed control at 250 g/ha was found to be 100% in [1]; 0% in assay [2]; 100% with Avena fatua (AVEFA) [3]; 100% in assay [4]; 100% in the assay on Setaria faberi (SETFA) [5]; 90% in [6]. The pest or weed control at 250 g/ha in [7] is 0%; in the assay with Avena fatua (AVEFA) [8], 90%; in assay [9] it was 100%; in the assay with Setaria faberi (SETFA) [10], 100%.

For `CSc1ccc(-c2nc(C3C(=O)[C@@H]4CC[C@@H](C4)C3=O)c(C)s2)cc1` (stereo partly drawn) [Compound T81], the pest or weed control at 250 g/ha amounted to 50% in assay [1]; 0% in assay [2]; 40% in the assay on Avena fatua (AVEFA) [3]; 100% in [4]; 100% in the assay on Setaria faberi (SETFA) [5]; 50% in [6]. For the same compound, the pest or weed control at 250 g/ha in assay [7] was 0%; with Avena fatua (AVEFA) [8] it was 50%; in [9] it was 100%; with Setaria faberi (SETFA) [10], 100%.

The record behind these values is patent US8598365B2, “Herbicides” (Syngenta Limited, priority 2007, dated 2013).
